Here are results for two substances from patent US7071167B2 (L'Oreal, priority 2002, dated 2006).

Where “and” joins values, the source holds several entries; their conditions need not be identical. Equal values may be shown once.

The subject of this experiment is Ca^2+ channel (L, verapamil site). Kind of experiment: Equilibrium binding competition on type-L calcium channels, verapamil site ([3H](-)D 888 displacement). Also on record: species or system rat. Conditions: for Mean % of binding / % of binding / Mean % of inhibition: Argireline 1.0%, magnesium gluconate 1 × 10^−4 M, combination 1 × 10^−4 M/1.0%; for % of binding: individual determinations, specific binding of 0.5 nM (3H)(-)D 888, rat cerebral cortex homogenates; for Mean % of inhibition: inhibition of specific binding. The protocol: The studies were performed using rat cerebral cortex homogenates (isolated membranes having type-L calcium channels at their surface).
The principle of an equilibrium displacement experiment includes measuring the specific binding at equilibrium, of a given concentration of radiolabelled ligand in the presence of a variable and increasing concentration of cold ligand. The cold ligand enters into competition with the radioactive ligand for its binding to the receptor; this is why this may be termed binding competition at equilibrium.
The experimental conditions according to the protocol described by Reynolds, I. J. et al., J. Pharmacol. Exp. Ther., vol. 237, p.
D 888 and D 600 are the reference molecules specific for the type-L calcium channels, verapamil site.
The specific binding of a ligand (labelled D 888) to the receptors (type-L calcium channels, verapamil site) is defined as the difference between the total binding and the […] determined in the presence of an excess of cold ligand. The results are expressed as a percentage of specific binding and as a percentage of inhibition of specific binding in the presence of the test compounds (Argireline®).

Take Magnesium gluconate: the “Mean % of binding” value was determined as 94.0%; the “% of binding” value was 93.8% and 95.2% and 93.0%; the “Mean % of inhibition” value was 6%. Where the note is “used alone at concentrations of 1×10^−6 M to 1×10^−4 M”, the “effect on the type-L calcium channels, verapamil site (in words)” value is “moderate effects”.
Regarding “Acetyl glutamyl-glutamyl-methionyl-glutaminyl-arginyl-arginylamide (Ac-EEMQRR-NH2) [Argireline ®, supplied at 0.05% in water]”, the “Mean % of binding” value is on record as 96.1%; the “% of binding” value was 95.1% and 93.1% and 99.9%; the “Mean % of inhibition” value is 4%. Moreover, the “mean percentage of inhibition” value (Argireline at 5%) was found to be 36%. For the same substance, for the setting “Argireline at 10%”, the “mean percentage of inhibition” value is reported as 52%.
